According to patent US4395969A (priority 1981, dated 1983):
Several values for one entry are separate records, joined by “and”; a condition that tells them apart may be missing. Identical values can stand only once.

Experiments:
brook stickleback = assay: Static bioassay, lethal concentration to brook stickleback; assay type: in vivo, Eucalia inconstans; details: 15 C
Method: (§1) Bioassays utilized water from an artesian well at Moscow, Idaho and from the headwaters of the Palouse River, also in Idaho. The chemical characteristics of the artesian water were analyzed as follows: Total hardness 67-120 mg/l; total dissolved solids, 160-175 mg/l; and pH 7.1. The chemistry of the Palouse River water was analyzed as follows: total hardness 17 mg/l; methyl orange alkalinity 26 mg/l; total dissolved solids, 32 mg/l and pH, 7.0.
(§2) Fish were acclimated to test temperatures, usually at 5, 7.5, 10, 15 and 20 degrees Celsius (C), at least 60 hours before exposure to toxicants. For fish and crayfish four water baths regulated the temperature of assay aquaria. Each water bath contained a battery of 20 identical 19-liter clear glass containers or 11.4-liter plastic aquaria lined with disposable polyethylene bags and covered with Plexiglass lids to reduce evaporation. For larger fish and large numbers of fish the bioassays were made in two temperature controlled rooms that contained a series of 700-liter circular fiberglass vats and a series of 76- and 91-liter plastic containers.
(§3) Standard bioassay techniques were used in sorting fish and conducting the tests. Fish were placed in aerated test aquaria overnight to permit fish to recover from stress due to handling and to deprive them of food. The average load varied but most bioassays were conducted with about 1 g of fish per liter of water.
(§4) Aliquots of organophosphates were dissolved in ethanol and dispensed to the aquaria to provide concentrations suitable for obtaining the LC0 and LC50 of desirable fish and the LC50 and LC100 of target fish. Control fish were conditioned in the same manner as the test fish, but no chemical was added to the control vessels during the assays. After the addition of a chemical, observations were made mainly at 3, 6, 12, 24, 48, 96, and 192 h. The weight and fork length of fish were obtained when fishes were sacrificed.
(§5) Delineation bioassays determined primarily the LC50 and LC100 of sucker and stickleback and the LC0 and LC50 of salmonids.
(§6) The statistical LC1, LC50, and LC99 were interpolated and/or extrapolated using probit graph paper to approximate the LC0, LC50, and LC100 when the latter set of values was not closely determined by single concentrations in a series.
(§7) The approximate LC50 and LC100 of the target fishes (threespine and brook sticklebacks and bridgelip and white suckers) are tabulated in Table 1. The 96-hour selectivity and safety indices of selected species of salmonids versus the three-spine stickleback are tabulated in Table 3.
(§8) Threespine stickleback, brook stickleback, bridgelip sucker, white sucker, chinook salmon, coho salmon, sockeye salmon, kokanee, Kamloops trout, cutthroat trout, and brook trout were treated with various concentrations of 2, 2, 2, 1-tetrachloroethyl diethyl phosphate and at various temperatures to determine approximate selectivity and safety indices. The approximate LC50 and LC100 of the target fishes (threespine and brook sticklebacks and bridgelip and white suckers) are tabulated in Table 5. The 96-hour selectivity and safety indices of selected species of salmonids versus the threespine stickleback are tabulated in Table 7.

[1] = Static bioassay, lethal concentration to Kamloops trout; assay type: in vivo, Kamloops (an adfluvial rainbow trout); details: kamloops trout, in vivo
Method: as §1, §2, §3, §4, §5, §6, §7, §8

Kamloops trout = assay: as above; assay type: in vivo, Kamloops (an adfluvial rainbow trout)
Method: as §1, §2, §3, §4, §5, §6, §7, §8

threespine stickleback = test system: threespine stickleback; design: species or system Gasterosteus aculeatus; details: in vivo
bridgelip sucker = assay: Selectivity and safety indices of salmonids versus the bridgelip sucker; assay type: in vivo, Catastomus columbianus; details: 96 h
Source text: as §5, §6, §7, §8

[2] = Half-life / degradation in water (gas chromatograph analysis); assay type: physicochemical; details: river water, 15 C
Source text: The presence of bacteria and other microorganisms affect the rate of degradation of the dichloro- and tetrachloro-compounds. Because of this the chemicals break down much faster in river water than in artesian well water or distilled water. For short term bioassays the potencies of the chemicals were not affected by the chemistry of the water.

sucker and stickleback = details: in vivo
in vivo [3] = details: chinook salmon
coho salmon = assay: Long-term static bioassay, coho salmon; details: 64 days, 10 C, individually
chinook salmon = assay: Long-term static bioassay, chinook salmon; details: 64 days, 10 C, individually
Salmonella, five strains = assay: Salmonella standard plate test for mutagens/carcinogens; details: 0.5, 5, 50, 500, and 5000 mg/l
in vivo [4] = details: steelhead trout
[5] = 10 C, individually, read-out: LC50
[6] = with 2 Cl 1:300, 10 C, read-out: LC50 in combination, 4 Cl component
[7] = 6 μg/l (or less), listed as 2, 2, 2, 1-tetrachloroethyl diethyl phosphate
[8] = with 4 Cl 300:1, 10 C, read-out: LC50 in combination, 2 Cl component
[9] = 300 μg/l, listed as 2, 2-dichlorovinyl diethyl phosphate

CCOP(=O)(OCC)OC(Cl)C(Cl)(Cl)Cl (stereo not drawn) [2,2,2,1-tetrachloroethyl diethyl phosphate]
LC50 (brook stickleback; 24 h): 0.006 µg/mL | LC100 (brook stickleback; 24 h): 0.01 mg/L | LC100 (brook stickleback; 48 h): 0.008 mg/L | LC100 (brook stickleback; 96 h): 0.006 mg/L | LC50 at 96 h ([1]; 5 C, read-out: LC50): > 0.03 µg/mL | LC50 at 192 h ([1]; 5 C, read-out: LC50): 0.018 µg/mL | LC50 at 96 h [1, 5]: 0.024 µg/mL | LC50 at 192 h [1, 5]: 0.02 µg/mL | LC50 at 96 h ([1]; 15 C, read-out: LC50): > 0.024 µg/mL | LC50 at 192 h ([1]; 15 C, read-out: LC50): > 0.024 µg/mL | LC50 at 96 h [1, 6]: 0.008 µg/mL | LC50 at 192 h [1, 6]: 0.005 µg/mL | LC0 (Kamloops trout; 5 C, 96 h): 0.024 mg/L | LC0 (Kamloops trout; 5 C, 192 h): 0.012 mg/L | LC0 (Kamloops trout; 10 C, 96 h, individually, listed as 2, 2, 2, 1-tetrachloroethyl diethyl phosphate): 0.018 mg/L and 0.014 mg/L | LC0 (Kamloops trout; 10 C, 96 h, individually, listed as 4 Cl): 0.014 mg/L | LC0 (Kamloops trout; 10 C, 192 h): 0.01 mg/L | LC0 (Kamloops trout; 15 C, 96 h): 0.024 mg/L | LC0 (Kamloops trout; 15 C, 192 h): 0.014 mg/L | Safety index (LC0/LC100) (threespine stickleback; 5760 min): 2.3 | Safety index (LC0/LC100) (bridgelip sucker; Kamloops, 5 C): 2.4 | Selectivity index (LC50/LC50) (bridgelip sucker; Kamloops, 5 C): 4.3 | Safety index (LC0/LC100) (bridgelip sucker; Kamloops, 10 C): 1.8 | Selectivity index (LC50/LC50) (bridgelip sucker; Kamloops, 10 C): 6.0 | Safety index (LC0/LC100) (bridgelip sucker; Kamloops, 15 C): 2.1 | Selectivity index (LC50/LC50) (bridgelip sucker; Kamloops, 15 C): 6.0 | Safety index (LC0/LC100) (bridgelip sucker; brook trout, 15 C): 1.4 | Selectivity index (LC50/LC50) (bridgelip sucker; brook trout, 15 C): 5.0 | Safety index (LC0/LC100) (bridgelip sucker; chinook, 10 C): 2.4 | Selectivity index (LC50/LC50) (bridgelip sucker; chinook, 10 C): 6.3 | Safety index (LC0/LC100) (bridgelip sucker; coho, 10 C): 1.7 | Selectivity index (LC50/LC50) (bridgelip sucker; coho, 10 C): 5.8 | Safety index (LC0/LC100) (bridgelip sucker; cutthroat, 10 C): 1.7 | Selectivity index (LC50/LC50) (bridgelip sucker; cutthroat, 10 C): 4.8 | Safety index (LC0/LC100) (bridgelip sucker; cutthroat, 15 C): 2.0 | Selectivity index (LC50/LC50) (bridgelip sucker; cutthroat, 15 C): 4.5 | Safety index (LC0/LC100) (bridgelip sucker; kokanee, 15 C): 2.9 | Selectivity index (LC50/LC50) (bridgelip sucker; kokanee, 15 C): 7.5 | Safety index (LC0/LC100) (bridgelip sucker; sockeye, 10 C): 1.4 | Selectivity index (LC50/LC50) (bridgelip sucker; sockeye, 10 C): 7.5 | half-life [2]: ~11 days | activity relative to the dichloro-compounds (sucker and stickleback): about 100 times | recommended safe and effective concentration (sucker and stickleback): 20 µg/L | LC50 at 48 h (in vivo [3]): 0.035 µg/mL | LC50 at 96 h (in vivo [3]): 0.025 µg/mL | LC50 at 192 h (in vivo [3]): 0.025 µg/mL | mortality (coho salmon; 6 μg/l (or less)): Essentially no mortality | mortality (coho salmon; [7]): no significant mortality | mortality (chinook salmon; 6 μg/l (or less)): Essentially no mortality | mortality (chinook salmon; [7]): no significant mortality | mutagenic activity (Salmonella, five strains): no mutagenic activity

CCOP(=O)(OC=C(Cl)Cl)OCC [2,2-dichlorovinyl diethyl phosphate]
LC50 (brook stickleback; 24 h): 0.8 µg/mL | LC100 (brook stickleback; 24 h): 1.0 mg/L | LC50 (brook stickleback; 48 h): 0.4 µg/mL | LC100 (brook stickleback; 48 h): 0.6 mg/L | LC50 (brook stickleback; 96 h): 0.4 µg/mL | LC100 (brook stickleback; 96 h): 0.6 mg/L | LC50 (brook stickleback; 192 h): 0.3 µg/mL | LC100 (brook stickleback; 192 h): 0.6 mg/L | LC50 at 192 h ([1]; 5 C, read-out: LC50): 5.1 µg/mL | LC50 at 96 h [1, 5]: 5 µg/mL | LC50 at 96 h ([1]; 10 C, read-out: LC50): 5.4 µg/mL | LC50 at 192 h [1, 5]: 2 µg/mL | LC50 at 192 h ([1]; 10 C, read-out: LC50): 2 µg/mL | LC50 at 96 h ([1]; 15 C, read-out: LC50): 3.5 µg/mL | LC50 at 192 h ([1]; 15 C, read-out: LC50): 3 µg/mL | LC50 at 96 h [1, 8]: 2.4 µg/mL | LC50 at 192 h [1, 8]: 1.5 µg/mL | LC0 (Kamloops trout; 5 C, 48 h): > 4.0 mg/L | LC0 (Kamloops trout; 5 C, 96 h): 2.0 mg/L | LC0 (Kamloops trout; 5 C, 192 h): 1.4 mg/L | LC0 (Kamloops trout; 10 C, 48 h): > 4.0 mg/L | LC0 (Kamloops trout; 10 C, 96 h): 2.0 mg/L | LC0 (Kamloops trout; 10 C, 96 h, individually): 2 mg/L | LC0 (Kamloops trout; 10 C, 192 h): 1.0 mg/L | LC0 (Kamloops trout; 15 C, 48 h): 3.0 mg/L | LC0 (Kamloops trout; 15 C, 96 h): 1.0 mg/L | LC0 (Kamloops trout; 15 C, 192 h): 1.0 mg/L | Selectivity index (LC50/LC50) (threespine stickleback): 5.7 | Safety index (LC0/LC100) (bridgelip sucker; Kamloops, 5 C): 7 | Selectivity index (LC50/LC50) (bridgelip sucker; Kamloops, 5 C): > 34 | Safety index (LC0/LC100) (bridgelip sucker; Kamloops, 10 C): 20 | Selectivity index (LC50/LC50) (bridgelip sucker; Kamloops, 10 C): 67 | Safety index (LC0/LC100) (bridgelip sucker; Kamloops, 15 C): 10 | Selectivity index (LC50/LC50) (bridgelip sucker; Kamloops, 15 C): 70 | Safety index (LC0/LC100) (bridgelip sucker; brook trout, 15 C): 20 | Selectivity index (LC50/LC50) (bridgelip sucker; brook trout, 15 C): 66 | Safety index (LC0/LC100) (bridgelip sucker; chinook, 10 C): 60 | Selectivity index (LC50/LC50) (bridgelip sucker; chinook, 10 C): 87 | Safety index (LC0/LC100) (bridgelip sucker; chinook, 15 C): 27 | Selectivity index (LC50/LC50) (bridgelip sucker; chinook, 15 C): 68 | Safety index (LC0/LC100) (bridgelip sucker; cutthroat, 10 C): 40 | Selectivity index (LC50/LC50) (bridgelip sucker; cutthroat, 10 C): > 60 | Safety index (LC0/LC100) (bridgelip sucker; cutthroat, 15 C): 20 | Selectivity index (LC50/LC50) (bridgelip sucker; cutthroat, 15 C): 50 | Safety index (LC0/LC100) (bridgelip sucker; sockeye, 7.5 C): 30 | Selectivity index (LC50/LC50) (bridgelip sucker; sockeye, 7.5 C): 100 | Safety index (LC0/LC100) (bridgelip sucker; sockeye, 10 C): 30 | Selectivity index (LC50/LC50) (bridgelip sucker; sockeye, 10 C): 75 | Safety index (LC0/LC100) (bridgelip sucker; steelhead, 5 C): 13 | Selectivity index (LC50/LC50) (bridgelip sucker; steelhead, 5 C): 47 | half-life [2]: < 20 days | potency for suckers relative to stickleback (sucker and stickleback): about 10 times | LC50 at 192 h (in vivo [3]): 5 µg/mL | LC50 at 96 h (in vivo [4]): 7.1 µg/mL | LC50 at 192 h (in vivo [4]): 2.8 µg/mL | mortality (coho salmon; 300 μg/l): essentially no mortality | mortality (coho salmon; [9]): no significant mortality | mortality (chinook salmon; 300 μg/l): essentially no mortality | mortality (chinook salmon; [9]): no significant mortality | mutagenic activity (Salmonella, five strains): no mutagenic activity
